For data set [1], the system named is mice C57BL/6J aged >24 months. Description: Open field test after benzodiazepine administration. The class given is in vivo. The following applies: elderly mice (>24 months), 2 mg/kg in saline, vs elderly vehicle or young mice treated with diazepam. The source says:
FIG. 2 illustrates the evaluation of the effect of benzodiazepines in elderly mice which is indicative of a potentiated GABAergic transmission. a) Quantification of the immobility time during the open field test of mice treated with vehicle (young, n=7, elderly, n=6) or diazepam (young, n=7, elderly, n=7) (two-way ANOVA, Tukey post hoc test, *** P<0.001). b) Quantification of the distance travelled during the open field test by mice treated with vehicle (young, n=7, elderly, n=6) or diazepam (young, n=7, elderly, n=7) (two-way ANOVA, Tukey post hoc test, […], *** P<0.001).
In fact, benzodiazepines are positive allosteric modulators of GABAAR. Benzodiazepines are commonly used as anxiolytic drugs, but can produce anxiogenic or highly sedative effects depending on the polarity of GABAergic transmission. To test the reaction of elderly mice to benzodiazepines, mice C57BL/6J aged >24 months and 2-month old controls C57BL/6J were treated with diazepam (2 mg/kg in saline solution) or vehicle (2% DMSO in saline solution). The open field test was then carried out to evaluate locomotor activity and the level of anxiety of the mice tested. […] This is indicative of an over-sedation reaction of the diazepam in the elderly mice, which may reflect the presence of hyper-inhibitory GABAergic transmission. This evidence in accordance with the […] of KCC2 (FIG. 1b).

Data set [2] concerns the target T1, KCC2 (Homo sapiens, UniProt Q9H2X9).
T1 construct: expressed in transfected cells; host or cells: HEK293T
T1 sequence (Q9H2X9 1-1139): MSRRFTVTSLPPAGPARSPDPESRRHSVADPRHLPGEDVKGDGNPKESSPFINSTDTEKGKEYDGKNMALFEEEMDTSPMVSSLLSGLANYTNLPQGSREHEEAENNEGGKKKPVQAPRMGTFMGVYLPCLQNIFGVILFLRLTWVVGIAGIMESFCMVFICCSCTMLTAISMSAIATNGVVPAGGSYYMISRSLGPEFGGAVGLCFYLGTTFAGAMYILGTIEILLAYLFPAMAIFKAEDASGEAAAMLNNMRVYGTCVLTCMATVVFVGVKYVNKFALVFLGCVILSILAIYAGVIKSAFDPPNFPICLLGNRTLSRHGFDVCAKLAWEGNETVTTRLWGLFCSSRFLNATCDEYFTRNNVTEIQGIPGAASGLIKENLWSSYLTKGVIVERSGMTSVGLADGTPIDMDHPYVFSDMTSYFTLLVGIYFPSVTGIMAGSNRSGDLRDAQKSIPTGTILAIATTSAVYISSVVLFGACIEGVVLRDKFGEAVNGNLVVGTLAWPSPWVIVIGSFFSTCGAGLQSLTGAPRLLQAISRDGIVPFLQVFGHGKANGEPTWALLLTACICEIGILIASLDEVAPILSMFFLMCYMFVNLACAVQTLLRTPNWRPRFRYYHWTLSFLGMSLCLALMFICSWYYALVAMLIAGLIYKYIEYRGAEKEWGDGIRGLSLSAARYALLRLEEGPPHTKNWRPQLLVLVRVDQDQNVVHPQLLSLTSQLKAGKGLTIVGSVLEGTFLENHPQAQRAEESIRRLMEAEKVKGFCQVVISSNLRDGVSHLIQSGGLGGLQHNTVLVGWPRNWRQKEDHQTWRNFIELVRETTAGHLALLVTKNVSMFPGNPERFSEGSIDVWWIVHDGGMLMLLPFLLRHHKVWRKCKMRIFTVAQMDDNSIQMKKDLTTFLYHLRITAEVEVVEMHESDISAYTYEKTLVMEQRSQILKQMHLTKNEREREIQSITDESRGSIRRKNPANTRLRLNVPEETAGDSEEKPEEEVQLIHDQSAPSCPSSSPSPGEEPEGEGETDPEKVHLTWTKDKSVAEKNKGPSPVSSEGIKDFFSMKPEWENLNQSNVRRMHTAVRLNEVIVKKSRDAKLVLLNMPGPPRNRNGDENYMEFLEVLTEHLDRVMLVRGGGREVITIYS
Description: Thallium influx functional assay (FluxOR Potassium ion channel assay) in HEK293T cells transfected with KCC2. In kind it is cell-based. The method, then: To verify the efficacy of the compounds to inhibit KCC2 in vitro a functional assay was used (FluxOR Potassium ion channel assay, Life Technologies), which measures the influx of thallium ions (replacing potassium) which permeate into the cell through KCC2. The thallium ions inside the cell are then measured using a Thallium sensor, the fluorescence of which increases after binding with thallium. In particular, the HEK293T cells were transfected with KCC2 or with the empty plasmid (mock control cells). After two days the cells were treated with the thallium sensor and in a solution without chlorine ions. After one hour the cells were washed and treated with furosemide and DMSO as negative control, again in a solution without chlorine ions and in the presence of a sodium/potassium pump inhibitor (ouabain). After twenty minutes the plates were placed in the Tecan Spark reader. The inhibitory activity of furosemide, reported in Table 1, was measured monitoring the fluorescence after thallium (TlSO4) and chlorine (NaCl) application.

Data set [3] deals with elderly mice. Description: Object localization (OL) test of spatial memory in elderly mice. The following applies: 25 mg/kg i.p., vs vehicle, FIG. 3b. In kind it is in vivo. The source says:
FIG. 3 illustrates the evaluation of the efficacy of furosemide (KCC2 inhibitor) to restore impaired memory in elderly mice. a) Quantification of the discrimination index of the NOR test in young (n=13) and elderly (n=10) mice (two tailed t-test, ** P<0.01). b) Quantification of the discrimination index of the OL test in mice treated with vehicle (young, n=13, elderly, n=7) or furosemide (young, n=11, elderly, n=6) (two-way ANOVA, Tukey post hoc test, * P<0.05).
To evaluate memory capacity in the elderly mice, the novel object recognition (NOR) test was conducted. This test evaluates the long-term object recognition memory by measuring the capacity of the mice to recognize a novel object compared to familiar objects. […] Subsequently, to test the ability of the non-selective KCC2 inhibitor, furosemide, to restore poor memory, the object localization (OL) test was conducted in the presence of the drug. The object localization test evaluates spatial memory by measuring the ability of the mice to recognize the new position of a familiar object. The mice were treated with furosemide (25 mg/kg i.p.) or with the vehicle.

SMILES strings stand for the structures.

The record followed here is patent publication US20250275987A1, “MODULATORS OF INTRACELLULAR CHLORIDE CONCENTRATION FOR USE IN THE TREATMENT OF COGNITIVE DECLINE” (FONDAZIONE ISTITUTO ITALIANO DI TECNOLOGIA, priority 2022, published 2025).

Turning to `CN1C(=O)CN=C(c2ccccc2)c2cc(Cl)ccc21` [diazepam], the “immobility time during the open field test” value in data set [1] (FIG. 2a) is listed as “significantly higher immobility time”. Further, the “distance travelled during the open field test” value in data set [1] (FIG. 2b) is given as “significantly lower distance travelled”.
For `NS(=O)(=O)c1cc(C(=O)O)c(NCc2ccco2)cc1Cl` [Furosemide, furosemide], the “% KCC2 inhibition at 10 μM” value in data set [2] (10 μM, HEK293T cells transfected with KCC2, thallium fluorescence) was “Inactive”. The compound further displayed an inhibition at 50 µM in data set [2] (HEK-293T, 50 μM, HEK293T cells transfected with KCC2, thallium fluorescence) of 39.8 ± 1.6%. Also, testing at 100 µM in data set [2] (HEK-293T, 100 μM, HEK293T cells transfected with KCC2, thallium fluorescence) gave an inhibition of 45.1 ± 6.4%. In data set [2] (KCC2 inhibition in vitro), this compound came in with a half-maximal inhibitory concentration (IC50) of 455 µM. Moreover, the “spatial memory (discrimination index of the OL test)” value in data set [3] is on record as “significantly restored the poor spatial memory of the elderly mice to the level of the young mice”.

What is called inhibition is how much of the control response was suppressed. A high value points to strong suppression. As a reminder, the IC50 is the concentration at which inhibition is half-maximal. Higher therefore signals a need for much substance.
